Experimental data reported in ChEMBL document CHEMBL4507276 (2021).

What was measured:
[1] = target: Macrophage colony-stimulating factor 1 receptor (Homo sapiens) (UniProt P07333); details: Compound concentration 1000.0 nM
[2] = target: Ribosomal protein S6 kinase alpha-2 (Homo sapiens) (UniProt Q15349); test: RPS6KA2 Invitrogen selectivity data (BI); details: Compound concentration 3.0 uM
[3] = target: Sodium-dependent noradrenaline transporter (Homo sapiens) (UniProt P23975); test: NETRANS/H Eurofins-Panlabs selectivity data (BI); details: Compound concentration 10.0 uM
[4] = target: T1, cAMP-dependent protein kinase catalytic subunit PRKX (Homo sapiens) (UniProt P51817); test: PRKX Invitrogen selectivity data (BI); details: Compound concentration 3.0 uM
T1 sequence (whole entry): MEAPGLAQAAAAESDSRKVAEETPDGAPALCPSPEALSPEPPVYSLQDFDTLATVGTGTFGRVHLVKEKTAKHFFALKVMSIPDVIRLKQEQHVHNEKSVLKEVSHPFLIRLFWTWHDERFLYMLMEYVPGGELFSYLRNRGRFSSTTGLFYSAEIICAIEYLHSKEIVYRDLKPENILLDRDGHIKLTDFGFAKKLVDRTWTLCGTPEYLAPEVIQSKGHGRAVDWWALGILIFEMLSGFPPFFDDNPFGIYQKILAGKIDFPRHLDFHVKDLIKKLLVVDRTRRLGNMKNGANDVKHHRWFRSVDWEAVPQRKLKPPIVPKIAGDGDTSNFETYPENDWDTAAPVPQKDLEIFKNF

[5] = target: Maternal embryonic leucine zipper kinase (Homo sapiens) (UniProt Q14680); test: MELK Invitrogen selectivity data (BI); details: Compound concentration 3.0 uM
[6] = target: T2, Muscarinic acetylcholine receptor M1 (Homo sapiens) (UniProt P11229); test: M1/H Cerep selectivity data (BI); details: Compound concentration 20.0 uM
T2 sequence (whole entry): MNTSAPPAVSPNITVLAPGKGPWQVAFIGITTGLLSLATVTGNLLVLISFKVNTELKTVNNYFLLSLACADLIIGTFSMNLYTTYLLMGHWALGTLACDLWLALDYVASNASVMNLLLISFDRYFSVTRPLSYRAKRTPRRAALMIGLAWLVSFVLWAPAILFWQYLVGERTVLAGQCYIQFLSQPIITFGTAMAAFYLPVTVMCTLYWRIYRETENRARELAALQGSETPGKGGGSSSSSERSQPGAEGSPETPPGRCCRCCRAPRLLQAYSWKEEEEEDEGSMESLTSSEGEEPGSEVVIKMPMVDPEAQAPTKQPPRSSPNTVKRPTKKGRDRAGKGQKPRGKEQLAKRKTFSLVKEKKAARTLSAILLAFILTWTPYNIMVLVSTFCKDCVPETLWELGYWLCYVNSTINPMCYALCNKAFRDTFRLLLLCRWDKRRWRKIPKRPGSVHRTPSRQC

[7] = target: T3, Serine/threonine-protein kinase 17A (Homo sapiens) (UniProt Q9UEE5); test: STK17A Invitrogen selectivity data (BI); details: Compound concentration 3.0 uM
T3 sequence (whole entry): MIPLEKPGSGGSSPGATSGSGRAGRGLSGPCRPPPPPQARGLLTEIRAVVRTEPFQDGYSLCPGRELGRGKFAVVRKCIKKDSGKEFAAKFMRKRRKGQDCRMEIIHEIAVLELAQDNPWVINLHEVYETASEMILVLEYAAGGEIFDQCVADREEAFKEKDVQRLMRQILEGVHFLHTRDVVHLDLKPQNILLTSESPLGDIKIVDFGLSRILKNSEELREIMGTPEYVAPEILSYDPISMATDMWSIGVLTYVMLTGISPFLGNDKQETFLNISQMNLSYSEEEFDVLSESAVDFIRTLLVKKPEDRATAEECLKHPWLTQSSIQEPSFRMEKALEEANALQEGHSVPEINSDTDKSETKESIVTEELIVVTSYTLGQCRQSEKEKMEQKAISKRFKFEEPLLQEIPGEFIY

[8] = target: Muscarinic acetylcholine receptor M3 (Homo sapiens) (UniProt P20309); test: M3/HU Eurofins-Panlabs selectivity data (BI); details: Compound concentration 10.0 uM
[9] = target: Alpha-1D adrenergic receptor (Homo sapiens) (UniProt P25100); test: ALPHA1D/H Eurofins-Panlabs selectivity data (BI); details: Compound concentration 10.0 uM
[10] = target: G protein-coupled receptor kinase 5 (Homo sapiens) (UniProt P34947); test: GRK5 Invitrogen selectivity data (BI); details: Compound concentration 3.0 uM
[11] = target: Endothelin-1 receptor (Homo sapiens) (UniProt P25101); test: ETA/HU Eurofins-Panlabs selectivity data (BI); details: Compound concentration 10.0 uM
[12] = target: Cyclin-dependent kinase 7 (Homo sapiens) (UniProt P50613); test: CDK7CYCLIN Invitrogen selectivity data (BI); details: Compound concentration 3.0 uM
[13] = target: Interleukin-1 receptor-associated kinase 1 (Homo sapiens) (UniProt P51617); test: IRAK1 Invitrogen selectivity data (BI); details: Compound concentration 3.0 uM
[14] = target: Vascular endothelial growth factor receptor 3 (Homo sapiens) (UniProt P35916); test: FLT4 Invitrogen selectivity data (BI); details: Compound concentration 3.0 uM
[15] = target: Tyrosine-protein kinase JAK2 (Homo sapiens) (UniProt O60674); test: JAK2 Invitrogen selectivity data (BI); details: Compound concentration 3.0 uM
[16] = target: Acetylcholine receptor subunit alpha (Homo sapiens) (UniProt P02708); test: NACH/H Eurofins-Panlabs selectivity data (BI); details: Compound concentration 10.0 uM
[17] = target: AMPK alpha2/beta1/gamma1 (Homo sapiens) (UniProt P54646+P54619+Q9Y478); test: AMPK A2B1G1 Invitrogen selectivity data (BI); assay type: protein-complex assay; details: Compound concentration 3.0 uM
[18] = test system: Tyrosine-protein kinase ABL1 (Homo sapiens), P00519 [Y253F]; test: ABL1 Y253F Invitrogen selectivity data (BI); details: Compound concentration 3.0 uM
[19] = target: Alpha-2C adrenergic receptor (Homo sapiens) (UniProt P18825); test: ALPHA2CH_ANTAG Cerep selectivity data (BI); details: filed as antagonist, Compound concentration 20.0 uM
[20] = target: Rho-associated protein kinase 1 (Homo sapiens) (UniProt Q13464); test: ROCK1 Invitrogen selectivity data (BI); details: Compound concentration 3.0 uM
[21] = target: C-C chemokine receptor type 2 (Homo sapiens) (UniProt P41597); test: CCR2/H AG Cerep selectivity data (BI); details: filed as agonist, Compound concentration 20.0 uM
[22] = target: Serine/threonine-protein kinase mTOR (Homo sapiens) (UniProt P42345); test: FRAP1 (MTOR) Invitrogen selectivity data (BI); details: Compound concentration 3.0 uM
[23] = target: Beta-1 adrenergic receptor (Homo sapiens) (UniProt P08588); test: BETA1/HUM Cerep selectivity data (BI); details: Compound concentration 20.0 uM
[24] = target: Proto-oncogene tyrosine-protein kinase Src (Homo sapiens) (UniProt P12931); test: SRC Invitrogen selectivity data (BI); details: Compound concentration 3.0 uM
[25] = target: Cyclin-dependent kinase 9 (Homo sapiens) (UniProt P50750); test: CDK9CYCLIN Invitrogen selectivity data (BI); details: Compound concentration 3.0 uM
[26] = target: Melatonin receptor type 1A (Homo sapiens) (UniProt P48039); test: MT1 (ML1A) Cerep selectivity data (BI); details: Compound concentration 20.0 uM
[27] = target: Non-receptor tyrosine-protein kinase TYK2 (Homo sapiens) (UniProt P29597); test: TYK2 Invitrogen selectivity data (BI); details: Compound concentration 3.0 uM

Measured: residual activity

Sequence of G protein-coupled receptor kinase 5 (Homo sapiens) (P34947 whole entry, looked up): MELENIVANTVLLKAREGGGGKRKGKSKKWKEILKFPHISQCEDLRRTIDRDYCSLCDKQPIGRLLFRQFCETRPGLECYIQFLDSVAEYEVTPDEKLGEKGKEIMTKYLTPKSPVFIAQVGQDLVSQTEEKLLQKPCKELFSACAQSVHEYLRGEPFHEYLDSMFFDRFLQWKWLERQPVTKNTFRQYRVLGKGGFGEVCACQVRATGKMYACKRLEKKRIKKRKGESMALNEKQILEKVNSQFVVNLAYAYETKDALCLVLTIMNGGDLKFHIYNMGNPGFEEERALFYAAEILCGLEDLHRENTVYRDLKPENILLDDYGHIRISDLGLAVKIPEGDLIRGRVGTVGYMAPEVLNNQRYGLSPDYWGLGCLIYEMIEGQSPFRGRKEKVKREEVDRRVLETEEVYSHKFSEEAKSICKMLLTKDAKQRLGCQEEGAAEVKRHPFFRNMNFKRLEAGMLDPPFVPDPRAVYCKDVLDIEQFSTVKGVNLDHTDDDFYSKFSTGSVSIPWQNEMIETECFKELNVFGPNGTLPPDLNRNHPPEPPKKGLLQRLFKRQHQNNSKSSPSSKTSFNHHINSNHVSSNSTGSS
Sequence of Non-receptor tyrosine-protein kinase TYK2 (Homo sapiens) (P29597 whole entry): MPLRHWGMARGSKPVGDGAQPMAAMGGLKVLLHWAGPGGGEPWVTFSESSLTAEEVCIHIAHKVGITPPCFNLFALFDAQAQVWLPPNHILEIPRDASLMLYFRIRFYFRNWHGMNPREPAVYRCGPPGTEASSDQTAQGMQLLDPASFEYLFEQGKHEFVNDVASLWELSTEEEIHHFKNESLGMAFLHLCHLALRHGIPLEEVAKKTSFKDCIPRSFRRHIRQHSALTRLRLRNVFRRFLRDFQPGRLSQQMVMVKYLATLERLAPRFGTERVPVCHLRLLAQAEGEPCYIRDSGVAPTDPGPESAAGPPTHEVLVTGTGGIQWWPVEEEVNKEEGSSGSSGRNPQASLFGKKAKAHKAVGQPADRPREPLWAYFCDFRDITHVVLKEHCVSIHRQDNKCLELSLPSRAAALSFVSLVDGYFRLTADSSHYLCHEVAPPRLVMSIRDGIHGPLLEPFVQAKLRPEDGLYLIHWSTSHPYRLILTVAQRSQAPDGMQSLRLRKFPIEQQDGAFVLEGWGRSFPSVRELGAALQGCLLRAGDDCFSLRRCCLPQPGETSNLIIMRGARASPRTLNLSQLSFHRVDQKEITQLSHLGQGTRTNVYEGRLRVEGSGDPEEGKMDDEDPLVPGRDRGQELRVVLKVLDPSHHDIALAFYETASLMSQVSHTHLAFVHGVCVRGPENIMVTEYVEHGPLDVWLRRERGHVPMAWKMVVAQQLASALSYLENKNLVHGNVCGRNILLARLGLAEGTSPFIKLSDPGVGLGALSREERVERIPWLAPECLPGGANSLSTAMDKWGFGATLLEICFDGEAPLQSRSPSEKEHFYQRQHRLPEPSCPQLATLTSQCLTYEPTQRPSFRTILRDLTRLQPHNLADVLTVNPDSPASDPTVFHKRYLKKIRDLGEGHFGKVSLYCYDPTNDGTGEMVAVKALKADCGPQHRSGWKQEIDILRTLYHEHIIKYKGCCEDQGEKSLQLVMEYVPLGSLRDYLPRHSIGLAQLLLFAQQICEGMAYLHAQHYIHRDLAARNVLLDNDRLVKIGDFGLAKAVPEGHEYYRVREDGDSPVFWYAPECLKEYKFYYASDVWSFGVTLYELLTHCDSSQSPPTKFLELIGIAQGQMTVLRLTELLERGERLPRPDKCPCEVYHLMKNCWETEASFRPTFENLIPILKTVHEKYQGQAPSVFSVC
Sequence of Beta-1 adrenergic receptor (Homo sapiens) (P08588 whole entry, looked up): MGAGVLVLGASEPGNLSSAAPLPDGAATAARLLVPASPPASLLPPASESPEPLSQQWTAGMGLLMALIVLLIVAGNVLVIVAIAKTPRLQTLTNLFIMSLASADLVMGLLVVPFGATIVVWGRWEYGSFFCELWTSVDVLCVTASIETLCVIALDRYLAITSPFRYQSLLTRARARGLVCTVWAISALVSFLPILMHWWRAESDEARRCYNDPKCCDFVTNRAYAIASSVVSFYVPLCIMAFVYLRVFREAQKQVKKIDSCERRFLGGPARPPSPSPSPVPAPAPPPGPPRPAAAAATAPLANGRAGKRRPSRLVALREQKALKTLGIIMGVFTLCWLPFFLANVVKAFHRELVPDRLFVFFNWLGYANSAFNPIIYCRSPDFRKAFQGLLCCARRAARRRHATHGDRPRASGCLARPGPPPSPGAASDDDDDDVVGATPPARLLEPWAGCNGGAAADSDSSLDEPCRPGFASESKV
Sequence of Endothelin-1 receptor (Homo sapiens) (P25101 whole entry): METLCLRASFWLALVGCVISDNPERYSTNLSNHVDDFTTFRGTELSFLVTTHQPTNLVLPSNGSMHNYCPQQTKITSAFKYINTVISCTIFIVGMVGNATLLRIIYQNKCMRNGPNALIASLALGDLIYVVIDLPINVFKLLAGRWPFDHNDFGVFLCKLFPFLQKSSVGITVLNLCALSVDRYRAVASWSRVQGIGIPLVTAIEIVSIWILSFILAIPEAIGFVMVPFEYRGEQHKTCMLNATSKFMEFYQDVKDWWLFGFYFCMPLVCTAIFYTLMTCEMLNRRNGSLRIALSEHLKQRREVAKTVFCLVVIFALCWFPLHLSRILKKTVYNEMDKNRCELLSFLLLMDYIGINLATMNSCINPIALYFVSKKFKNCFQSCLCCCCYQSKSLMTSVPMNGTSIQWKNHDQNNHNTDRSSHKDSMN
Sequence of Alpha-2C adrenergic receptor (Homo sapiens) (P18825 whole entry): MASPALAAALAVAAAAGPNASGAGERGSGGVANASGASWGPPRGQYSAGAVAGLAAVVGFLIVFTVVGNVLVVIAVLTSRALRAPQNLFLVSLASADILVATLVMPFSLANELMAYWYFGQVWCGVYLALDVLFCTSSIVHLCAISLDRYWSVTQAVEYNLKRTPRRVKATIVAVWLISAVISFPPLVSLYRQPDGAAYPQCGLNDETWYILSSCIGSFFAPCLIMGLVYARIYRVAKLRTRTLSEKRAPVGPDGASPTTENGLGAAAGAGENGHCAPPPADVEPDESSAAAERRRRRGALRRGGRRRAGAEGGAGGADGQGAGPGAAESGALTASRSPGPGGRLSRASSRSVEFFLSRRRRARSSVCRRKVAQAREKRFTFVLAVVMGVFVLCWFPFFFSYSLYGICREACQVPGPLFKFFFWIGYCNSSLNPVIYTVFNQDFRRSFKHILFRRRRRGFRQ
Sequence of Acetylcholine receptor subunit alpha (Homo sapiens) (P02708 whole entry): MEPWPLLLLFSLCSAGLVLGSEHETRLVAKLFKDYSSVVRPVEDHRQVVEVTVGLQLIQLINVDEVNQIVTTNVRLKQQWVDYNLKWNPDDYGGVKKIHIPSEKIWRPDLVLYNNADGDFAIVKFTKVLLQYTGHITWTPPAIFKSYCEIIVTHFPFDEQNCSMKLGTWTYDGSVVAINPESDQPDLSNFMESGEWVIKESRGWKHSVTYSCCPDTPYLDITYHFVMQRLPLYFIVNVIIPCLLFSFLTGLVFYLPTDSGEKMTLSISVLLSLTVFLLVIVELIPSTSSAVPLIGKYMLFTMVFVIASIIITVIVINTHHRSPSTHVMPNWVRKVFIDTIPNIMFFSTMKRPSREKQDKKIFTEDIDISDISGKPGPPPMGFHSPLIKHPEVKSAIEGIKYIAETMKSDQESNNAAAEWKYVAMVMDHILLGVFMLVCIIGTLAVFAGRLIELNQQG
Sequence of AMPK alpha2/beta1/gamma1 (Homo sapiens) (P54619 whole entry partner): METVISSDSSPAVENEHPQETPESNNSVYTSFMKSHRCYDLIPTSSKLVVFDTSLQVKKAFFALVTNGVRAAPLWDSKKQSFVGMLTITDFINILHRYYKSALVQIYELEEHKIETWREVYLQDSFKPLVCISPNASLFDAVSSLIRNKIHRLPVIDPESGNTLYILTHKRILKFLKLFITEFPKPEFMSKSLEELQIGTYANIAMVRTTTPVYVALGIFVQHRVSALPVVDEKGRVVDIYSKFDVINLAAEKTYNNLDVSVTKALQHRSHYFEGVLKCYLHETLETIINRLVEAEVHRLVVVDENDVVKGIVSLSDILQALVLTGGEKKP
Sequence of AMPK alpha2/beta1/gamma1 (Homo sapiens) (P54646 whole entry): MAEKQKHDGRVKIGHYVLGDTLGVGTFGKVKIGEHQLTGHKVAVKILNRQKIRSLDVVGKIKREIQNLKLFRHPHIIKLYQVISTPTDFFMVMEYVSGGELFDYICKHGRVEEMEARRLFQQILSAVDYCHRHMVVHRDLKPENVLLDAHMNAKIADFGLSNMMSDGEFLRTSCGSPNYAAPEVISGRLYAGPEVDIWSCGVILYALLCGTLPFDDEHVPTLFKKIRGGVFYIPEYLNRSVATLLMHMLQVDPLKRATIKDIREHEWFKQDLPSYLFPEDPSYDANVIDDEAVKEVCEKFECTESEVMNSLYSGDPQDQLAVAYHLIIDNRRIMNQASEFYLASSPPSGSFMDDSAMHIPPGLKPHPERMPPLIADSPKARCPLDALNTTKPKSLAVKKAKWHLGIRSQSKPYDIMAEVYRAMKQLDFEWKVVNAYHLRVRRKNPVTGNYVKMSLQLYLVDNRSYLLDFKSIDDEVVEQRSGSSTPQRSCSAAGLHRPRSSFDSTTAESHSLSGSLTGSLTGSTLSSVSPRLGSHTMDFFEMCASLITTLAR
Sequence of AMPK alpha2/beta1/gamma1 (Homo sapiens) (Q9Y478 2-270 partner limits assumed): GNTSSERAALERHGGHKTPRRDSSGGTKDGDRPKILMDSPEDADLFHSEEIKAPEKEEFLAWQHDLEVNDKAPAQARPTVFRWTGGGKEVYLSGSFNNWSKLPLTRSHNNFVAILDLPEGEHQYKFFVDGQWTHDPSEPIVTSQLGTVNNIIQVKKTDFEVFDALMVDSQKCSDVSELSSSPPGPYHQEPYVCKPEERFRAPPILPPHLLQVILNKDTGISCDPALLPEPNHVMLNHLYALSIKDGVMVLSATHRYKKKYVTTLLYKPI

CN(C)C(=O)Cn1cc(-c2nc(C3(c4ccc(-c5cnc(N)nc5)cc4)CC3)no2)cn1 [BI 0153]
inactive: [1] 100%

CN(C)C(=O)Cn1cc(-c2nc([C@@](C)(c3ccc(-c4cnc(N)nc4)cc3)C3CC3)no2)cn1 [BI 665915]
inactive: [2] 100% | [3] 103% | [4] 102% | [5] 94% | [6] 99% | [7] 96% | [8] 105% | [9] 107% | [10] 100% | [11] 98% | [12] 100% | [13] 100% | [14] 69.5% | [15] 91% | [16] 97% | [17] 100% | [18] 80% | [19] 103% | [20] 99.5% | [21] 109% | [22] 104% | [23] 100% | [24] 90.5% | [25] 102% | [26] 91% | [27] 97.5%
